The values that follow come from ChEMBL document CHEMBL3991601, “The target landscape of clinical kinase drugs” (Science, 2017).

Assay [1] concerns the target Insulin-like growth factor 1 receptor (Homo sapiens, UniProt P08069).
In assay [2] the target is T1, Ras-related protein Rab-27A (Homo sapiens, UniProt P51159).
T1 sequence (P51159 whole entry): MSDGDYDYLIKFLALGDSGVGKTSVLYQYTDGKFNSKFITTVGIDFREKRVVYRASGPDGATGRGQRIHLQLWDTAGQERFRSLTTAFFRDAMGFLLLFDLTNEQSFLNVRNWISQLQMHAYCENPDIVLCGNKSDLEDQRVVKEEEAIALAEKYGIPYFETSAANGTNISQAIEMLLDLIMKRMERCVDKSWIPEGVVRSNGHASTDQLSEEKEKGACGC

The target of assay [3] is T2, Calcium/calmodulin-dependent protein kinase type IV (Homo sapiens, UniProt Q16566).
T2 sequence (Q16566 whole entry): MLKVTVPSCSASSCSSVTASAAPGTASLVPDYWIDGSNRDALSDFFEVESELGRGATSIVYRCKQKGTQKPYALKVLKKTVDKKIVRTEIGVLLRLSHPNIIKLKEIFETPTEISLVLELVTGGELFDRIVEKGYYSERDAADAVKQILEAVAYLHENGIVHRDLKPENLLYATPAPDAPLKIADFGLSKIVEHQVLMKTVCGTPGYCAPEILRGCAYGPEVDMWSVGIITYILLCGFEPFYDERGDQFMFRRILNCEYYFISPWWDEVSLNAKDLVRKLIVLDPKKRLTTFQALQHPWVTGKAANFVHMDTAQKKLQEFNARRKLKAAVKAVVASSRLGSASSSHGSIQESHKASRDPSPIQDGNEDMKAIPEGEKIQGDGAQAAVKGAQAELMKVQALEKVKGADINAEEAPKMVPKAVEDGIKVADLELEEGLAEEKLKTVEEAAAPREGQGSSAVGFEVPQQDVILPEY

Assay [4] concerns the target T3, Serine/threonine-protein kinase D3 (Homo sapiens, UniProt O94806).
T3 sequence (O94806 whole entry): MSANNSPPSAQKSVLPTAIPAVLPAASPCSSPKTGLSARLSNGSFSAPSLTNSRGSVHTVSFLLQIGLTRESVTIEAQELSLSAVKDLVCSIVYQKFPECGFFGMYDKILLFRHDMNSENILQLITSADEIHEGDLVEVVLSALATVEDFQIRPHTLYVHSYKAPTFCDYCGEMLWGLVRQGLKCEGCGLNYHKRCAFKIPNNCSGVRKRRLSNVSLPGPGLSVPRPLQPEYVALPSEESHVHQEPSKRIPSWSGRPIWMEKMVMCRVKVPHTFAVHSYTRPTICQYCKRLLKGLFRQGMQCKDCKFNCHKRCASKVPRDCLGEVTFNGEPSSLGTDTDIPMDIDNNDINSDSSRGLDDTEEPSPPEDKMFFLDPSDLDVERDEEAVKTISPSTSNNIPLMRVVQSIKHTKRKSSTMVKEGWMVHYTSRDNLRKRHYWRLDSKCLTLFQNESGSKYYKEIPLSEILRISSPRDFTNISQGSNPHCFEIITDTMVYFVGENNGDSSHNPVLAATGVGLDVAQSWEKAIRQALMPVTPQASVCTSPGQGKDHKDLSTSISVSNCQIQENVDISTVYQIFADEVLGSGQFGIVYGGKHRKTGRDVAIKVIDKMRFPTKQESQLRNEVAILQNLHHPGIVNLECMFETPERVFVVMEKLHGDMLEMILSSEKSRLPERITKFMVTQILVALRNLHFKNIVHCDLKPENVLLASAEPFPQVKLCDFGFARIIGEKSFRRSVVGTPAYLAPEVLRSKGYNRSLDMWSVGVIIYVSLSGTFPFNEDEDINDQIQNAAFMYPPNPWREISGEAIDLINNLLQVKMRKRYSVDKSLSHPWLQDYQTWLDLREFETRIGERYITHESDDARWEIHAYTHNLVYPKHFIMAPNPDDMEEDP

In another assay the target is Deoxycytidine kinase (Homo sapiens, UniProt P27707).
A further assay concerns the target Ephrin type-A receptor 2 (Homo sapiens, UniProt P29317).
Assay [5] concerns the target Cyclin-dependent kinase 13 (Homo sapiens, UniProt Q14004).
In assay [6] the target is T4, Acyl-CoA dehydrogenase family member 10 (Homo sapiens, UniProt Q6JQN1).
T4 sequence (Q6JQN1 whole entry): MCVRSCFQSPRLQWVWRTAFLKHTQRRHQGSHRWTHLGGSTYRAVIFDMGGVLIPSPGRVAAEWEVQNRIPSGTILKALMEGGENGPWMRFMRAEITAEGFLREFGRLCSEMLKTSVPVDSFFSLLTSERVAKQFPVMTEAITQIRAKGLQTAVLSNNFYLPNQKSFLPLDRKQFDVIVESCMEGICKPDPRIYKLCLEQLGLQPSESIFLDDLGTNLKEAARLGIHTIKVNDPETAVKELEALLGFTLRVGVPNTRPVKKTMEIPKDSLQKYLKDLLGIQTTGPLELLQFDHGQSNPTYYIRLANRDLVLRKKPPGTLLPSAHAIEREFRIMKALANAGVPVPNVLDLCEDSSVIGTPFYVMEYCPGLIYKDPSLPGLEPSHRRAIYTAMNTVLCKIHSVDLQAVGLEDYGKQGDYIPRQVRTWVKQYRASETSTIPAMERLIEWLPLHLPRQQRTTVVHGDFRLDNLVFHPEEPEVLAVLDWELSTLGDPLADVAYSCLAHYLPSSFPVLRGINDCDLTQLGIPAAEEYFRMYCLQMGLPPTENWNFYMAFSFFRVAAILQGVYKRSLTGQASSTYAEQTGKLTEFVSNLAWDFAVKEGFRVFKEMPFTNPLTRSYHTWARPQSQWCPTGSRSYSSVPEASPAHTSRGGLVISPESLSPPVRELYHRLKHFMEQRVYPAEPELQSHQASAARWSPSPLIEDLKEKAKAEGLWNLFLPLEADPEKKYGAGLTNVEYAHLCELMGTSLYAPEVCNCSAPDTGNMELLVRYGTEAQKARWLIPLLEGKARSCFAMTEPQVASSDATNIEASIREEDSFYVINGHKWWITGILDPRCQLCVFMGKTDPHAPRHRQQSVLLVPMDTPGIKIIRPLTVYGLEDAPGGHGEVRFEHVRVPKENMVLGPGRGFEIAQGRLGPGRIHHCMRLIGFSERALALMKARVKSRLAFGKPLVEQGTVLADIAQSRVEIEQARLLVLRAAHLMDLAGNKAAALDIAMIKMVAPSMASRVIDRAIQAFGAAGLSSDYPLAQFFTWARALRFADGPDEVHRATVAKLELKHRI

Assay [7] deals with Mitogen-activated protein kinase kinase kinase 1 (Homo sapiens, UniProt Q13233).
For assay [8], the target named is MAP kinase-activated protein kinase 2 (Homo sapiens, UniProt P49137).

Calls of active or inactive are those of the source.
Also: in the data inactive means no Kd found up to 30 µM.

Chain of MAP kinase-activated protein kinase 2 (P49137 whole entry): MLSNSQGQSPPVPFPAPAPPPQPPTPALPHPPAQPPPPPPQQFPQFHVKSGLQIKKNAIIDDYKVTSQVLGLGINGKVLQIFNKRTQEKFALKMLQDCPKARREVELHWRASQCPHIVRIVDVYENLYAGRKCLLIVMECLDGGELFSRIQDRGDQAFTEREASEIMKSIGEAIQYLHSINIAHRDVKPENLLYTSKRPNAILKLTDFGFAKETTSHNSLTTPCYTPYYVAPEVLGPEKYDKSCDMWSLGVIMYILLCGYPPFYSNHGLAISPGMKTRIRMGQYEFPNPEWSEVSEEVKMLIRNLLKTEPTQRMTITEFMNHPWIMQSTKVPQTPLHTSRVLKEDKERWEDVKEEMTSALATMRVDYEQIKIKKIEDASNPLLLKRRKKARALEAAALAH
Chain of Ephrin type-A receptor 2 (P29317 whole entry): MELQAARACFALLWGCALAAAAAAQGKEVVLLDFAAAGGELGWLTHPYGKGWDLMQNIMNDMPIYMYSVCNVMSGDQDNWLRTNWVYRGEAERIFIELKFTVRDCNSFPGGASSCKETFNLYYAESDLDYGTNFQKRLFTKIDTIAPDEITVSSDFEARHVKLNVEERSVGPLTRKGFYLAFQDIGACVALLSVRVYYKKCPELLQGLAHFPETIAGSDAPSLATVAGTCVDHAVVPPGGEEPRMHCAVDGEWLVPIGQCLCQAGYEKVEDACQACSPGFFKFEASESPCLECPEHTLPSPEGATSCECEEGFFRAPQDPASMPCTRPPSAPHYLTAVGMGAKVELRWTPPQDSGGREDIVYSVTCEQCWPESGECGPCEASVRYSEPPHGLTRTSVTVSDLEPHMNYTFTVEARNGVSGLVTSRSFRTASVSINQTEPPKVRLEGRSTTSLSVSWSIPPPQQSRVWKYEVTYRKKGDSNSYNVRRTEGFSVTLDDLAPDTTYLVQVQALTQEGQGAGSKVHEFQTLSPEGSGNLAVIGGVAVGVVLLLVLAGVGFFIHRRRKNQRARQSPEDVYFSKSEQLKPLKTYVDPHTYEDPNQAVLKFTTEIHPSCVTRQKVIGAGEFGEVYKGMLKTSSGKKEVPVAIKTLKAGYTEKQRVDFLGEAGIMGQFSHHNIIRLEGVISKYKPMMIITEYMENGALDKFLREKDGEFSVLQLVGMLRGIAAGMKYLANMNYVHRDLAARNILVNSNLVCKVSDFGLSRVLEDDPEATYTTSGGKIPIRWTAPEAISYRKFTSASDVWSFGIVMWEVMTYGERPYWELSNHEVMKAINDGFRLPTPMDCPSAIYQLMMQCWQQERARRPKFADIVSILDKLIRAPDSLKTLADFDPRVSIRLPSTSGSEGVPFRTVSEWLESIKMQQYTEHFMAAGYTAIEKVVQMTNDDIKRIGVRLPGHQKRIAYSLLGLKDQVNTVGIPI
Chain of Mitogen-activated protein kinase kinase kinase 1 (Q13233 whole entry): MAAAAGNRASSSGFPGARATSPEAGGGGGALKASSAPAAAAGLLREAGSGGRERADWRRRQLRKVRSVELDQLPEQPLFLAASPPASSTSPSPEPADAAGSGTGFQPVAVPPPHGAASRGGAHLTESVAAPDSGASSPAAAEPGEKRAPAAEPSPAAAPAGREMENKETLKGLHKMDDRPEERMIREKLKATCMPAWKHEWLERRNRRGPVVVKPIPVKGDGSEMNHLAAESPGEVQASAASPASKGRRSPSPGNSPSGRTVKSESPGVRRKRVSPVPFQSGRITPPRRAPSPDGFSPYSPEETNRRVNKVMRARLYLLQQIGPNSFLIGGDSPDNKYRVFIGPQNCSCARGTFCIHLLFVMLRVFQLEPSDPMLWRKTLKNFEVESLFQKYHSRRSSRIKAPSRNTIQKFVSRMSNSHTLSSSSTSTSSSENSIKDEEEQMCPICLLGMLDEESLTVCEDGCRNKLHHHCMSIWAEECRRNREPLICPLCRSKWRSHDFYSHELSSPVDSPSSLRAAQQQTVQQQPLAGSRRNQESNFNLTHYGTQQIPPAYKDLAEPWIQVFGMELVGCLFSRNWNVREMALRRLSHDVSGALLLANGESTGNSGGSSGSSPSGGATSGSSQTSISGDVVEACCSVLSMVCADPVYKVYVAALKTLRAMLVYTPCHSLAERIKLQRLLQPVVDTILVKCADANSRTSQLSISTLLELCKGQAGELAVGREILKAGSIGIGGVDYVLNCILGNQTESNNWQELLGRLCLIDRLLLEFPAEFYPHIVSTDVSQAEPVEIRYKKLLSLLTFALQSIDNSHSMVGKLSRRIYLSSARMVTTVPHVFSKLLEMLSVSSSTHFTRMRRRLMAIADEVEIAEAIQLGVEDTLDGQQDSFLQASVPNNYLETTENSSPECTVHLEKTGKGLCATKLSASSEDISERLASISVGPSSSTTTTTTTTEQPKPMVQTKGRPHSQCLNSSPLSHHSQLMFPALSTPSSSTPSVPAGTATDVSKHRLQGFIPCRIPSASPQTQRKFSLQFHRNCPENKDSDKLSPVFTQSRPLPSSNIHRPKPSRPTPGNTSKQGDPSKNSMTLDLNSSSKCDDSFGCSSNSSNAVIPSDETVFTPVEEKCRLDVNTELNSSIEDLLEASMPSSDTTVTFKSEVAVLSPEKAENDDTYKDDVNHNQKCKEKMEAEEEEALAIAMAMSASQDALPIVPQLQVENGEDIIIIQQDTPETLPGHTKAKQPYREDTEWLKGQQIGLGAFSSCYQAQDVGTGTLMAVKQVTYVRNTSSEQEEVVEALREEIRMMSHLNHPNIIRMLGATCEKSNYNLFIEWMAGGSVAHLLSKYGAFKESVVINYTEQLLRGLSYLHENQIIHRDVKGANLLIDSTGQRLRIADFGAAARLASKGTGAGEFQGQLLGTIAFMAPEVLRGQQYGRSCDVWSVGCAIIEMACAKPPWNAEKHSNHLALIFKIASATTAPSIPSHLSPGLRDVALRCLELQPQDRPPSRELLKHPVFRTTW
Chain of Cyclin-dependent kinase 13 (Q14004 whole entry): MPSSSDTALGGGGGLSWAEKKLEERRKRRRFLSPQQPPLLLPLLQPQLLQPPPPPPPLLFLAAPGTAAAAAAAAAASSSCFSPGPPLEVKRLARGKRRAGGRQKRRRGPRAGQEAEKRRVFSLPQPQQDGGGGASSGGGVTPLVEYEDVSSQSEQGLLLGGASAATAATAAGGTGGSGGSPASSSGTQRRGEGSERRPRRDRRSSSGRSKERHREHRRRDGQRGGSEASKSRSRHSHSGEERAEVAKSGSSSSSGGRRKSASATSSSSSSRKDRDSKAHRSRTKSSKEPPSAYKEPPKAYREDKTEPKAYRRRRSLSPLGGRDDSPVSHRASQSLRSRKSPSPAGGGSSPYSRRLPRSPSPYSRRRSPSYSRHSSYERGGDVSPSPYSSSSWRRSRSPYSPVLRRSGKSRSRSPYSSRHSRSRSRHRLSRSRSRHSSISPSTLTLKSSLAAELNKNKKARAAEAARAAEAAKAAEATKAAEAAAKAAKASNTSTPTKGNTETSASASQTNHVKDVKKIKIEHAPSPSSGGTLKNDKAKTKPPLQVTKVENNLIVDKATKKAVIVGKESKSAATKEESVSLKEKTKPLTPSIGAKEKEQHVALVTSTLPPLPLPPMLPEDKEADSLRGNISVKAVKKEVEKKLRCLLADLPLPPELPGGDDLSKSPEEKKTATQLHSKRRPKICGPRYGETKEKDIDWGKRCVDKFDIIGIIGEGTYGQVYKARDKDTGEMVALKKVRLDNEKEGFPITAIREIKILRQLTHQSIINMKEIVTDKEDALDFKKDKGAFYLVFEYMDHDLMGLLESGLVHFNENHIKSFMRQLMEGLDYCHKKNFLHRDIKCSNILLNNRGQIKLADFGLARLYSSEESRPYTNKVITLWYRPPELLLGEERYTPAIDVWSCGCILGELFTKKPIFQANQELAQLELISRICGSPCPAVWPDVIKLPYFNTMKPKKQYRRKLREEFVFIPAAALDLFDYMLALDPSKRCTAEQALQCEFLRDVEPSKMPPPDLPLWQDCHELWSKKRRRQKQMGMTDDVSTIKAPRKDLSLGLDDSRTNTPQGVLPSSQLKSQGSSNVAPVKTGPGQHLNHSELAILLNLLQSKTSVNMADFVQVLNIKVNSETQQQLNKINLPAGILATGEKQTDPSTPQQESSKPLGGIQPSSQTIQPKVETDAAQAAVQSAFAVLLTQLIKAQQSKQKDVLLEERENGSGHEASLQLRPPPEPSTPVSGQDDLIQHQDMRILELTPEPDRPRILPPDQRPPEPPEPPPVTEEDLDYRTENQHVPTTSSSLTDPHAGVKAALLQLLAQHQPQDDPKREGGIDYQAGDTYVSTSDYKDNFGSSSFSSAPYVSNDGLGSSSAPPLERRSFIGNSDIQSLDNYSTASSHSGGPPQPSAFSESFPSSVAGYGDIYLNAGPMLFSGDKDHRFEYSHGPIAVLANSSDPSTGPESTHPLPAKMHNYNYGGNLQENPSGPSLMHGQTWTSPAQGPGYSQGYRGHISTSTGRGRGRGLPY
Chain of Deoxycytidine kinase (P27707 whole entry): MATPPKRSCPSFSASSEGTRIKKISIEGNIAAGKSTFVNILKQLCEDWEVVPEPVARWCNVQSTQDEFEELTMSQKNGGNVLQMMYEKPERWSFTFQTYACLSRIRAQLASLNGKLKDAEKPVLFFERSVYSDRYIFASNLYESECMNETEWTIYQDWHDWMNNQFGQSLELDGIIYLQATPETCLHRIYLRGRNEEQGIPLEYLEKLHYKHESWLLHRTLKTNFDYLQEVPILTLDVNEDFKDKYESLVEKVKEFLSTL

On to `CC(=O)c1cnc2ccc(-c3cc(Cl)c(O)c(Cl)c3)nc2c1N[C@H]1CC[C@H](CN(C)C)CC1`, for which the Kd (in general, the equilibrium constant for the complex coming apart) in assay [1] is > 30 µM (inactive); in [2], > 30 µM (inactive); in assay [3], > 30 µM (inactive); in assay [4] it was 0.093 µM (active); on Deoxycytidine kinase, > 30 µM (inactive); at Ephrin type-A receptor 2, 0.11 µM (active). Further, the Kd in [5], in [6] and in assay [7] was > 30 µM (inactive) throughout.

`Nc1ncnc2c1c(-c1cccc(OCc3ccccc3)c1)cn2[C@H]1C[C@@H](CN2CCC2)C1` [AEW-541]: the Kd (in assay [2]; in [3]; in assay [4]; on Deoxycytidine kinase; on Ephrin type-A receptor 2; in [5]) was > 30 µM (inactive) in each case. Also, the Kd in assay [6], in assay [7] and in assay [8] was > 30 µM (inactive) in each case.

Regarding `COc1cc(Nc2ncc3c(n2)-c2ccc(Cl)cc2C(c2c(F)cccc2OC)=NC3)ccc1C(=O)O` [ALISERTIB], the Kd (in assay [2]; in [3]; on Deoxycytidine kinase; in assay [5]; in assay [7]) was > 30 µM (inactive) throughout.

For `CNC(=O)c1ccccc1Sc1ccc2c(/C=C/c3ccccn3)n[nH]c2c1` [AXITINIB], the Kd (in assay [2]; at Deoxycytidine kinase; in assay [6]) was > 30 µM (inactive) in each case.

With `Cc1cc(Nc2ncc(Cl)c(Nc3ccccc3S(=O)(=O)C(C)C)n2)c(OC(C)C)cc1C1CCNCC1` [CERITINIB], the Kd was > 30 µM (inactive) in assay [2]; 0.635 µM (active) in [3]; > 30 µM (inactive) in assay [4]; > 30 µM (inactive) on Deoxycytidine kinase; > 30 µM (inactive) on Ephrin type-A receptor 2; > 30 µM (inactive) in assay [5]. Besides, the Kd in assay [6], in [7] and in [8] was > 30 µM (inactive) each time.

In the case of `CC(C)(C)c1nc(-c2cccc(NS(=O)(=O)c3c(F)cccc3F)c2F)c(-c2ccnc(N)n2)s1` [DABRAFENIB], the Kd in assay [2] was > 30 µM (inactive); in assay [4], 0.12 µM (active); at Deoxycytidine kinase it was > 30 µM (inactive); at Ephrin type-A receptor 2 it was > 30 µM (inactive); in assay [5] it was > 30 µM (inactive); in assay [6] it was > 30 µM (inactive). Also, the Kd in assay [7] is > 30 µM (inactive).

`Cn1cc(C2=C(c3cn(C4CCN(Cc5ccccn5)CC4)c4ccccc34)C(=O)NC2=O)c2ccccc21` [ENZASTAURIN]: the Kd (in assay [2]; at Deoxycytidine kinase; in assay [6]) was > 30 µM (inactive) each time.

With `C[C@@H](Oc1cc(-n2cnc3ccc(CN4CCN(C)CC4)cc32)sc1C(N)=O)c1ccccc1C(F)(F)F` [GSK-461364], the Kd (in assay [2]; at Deoxycytidine kinase; in assay [6]) was > 30 µM (inactive) each time.

`CCn1cc(-c2ccnc3[nH]c(-c4cccc(CN(C)C)c4)cc23)c(-c2ccc(NC(=O)N(C)C)cc2)n1` [GSK-1070916]: the Kd in [1] is > 30 µM (inactive); in assay [2] it was > 30 µM (inactive); in assay [3], > 30 µM (inactive); in assay [4], 1.93 µM (active); at Deoxycytidine kinase, 2.16 µM (active); on Ephrin type-A receptor 2, > 30 µM (inactive). The Kd was 1.11 µM (active) in assay [6] and > 30 µM (inactive) in assay [7].

Regarding `Cc1[nH]c(/C=C2\C(=O)Nc3ccccc32)c(C)c1CCC(=O)O` [ORANTINIB], the Kd (in [2]; in [3]; on Deoxycytidine kinase; in [5]; in [6]; in assay [7]) was > 30 µM (inactive) in each case.

Consider `NC(=O)c1c(OCc2c(F)cc(Br)cc2F)nsc1NC(=O)NCCCCN1CCCC1` [OSI-632], for which the Kd in assay [2] is > 30 µM (inactive); in assay [3] it was > 30 µM (inactive); on Deoxycytidine kinase, > 30 µM (inactive); in [6], > 30 µM (inactive); in [7], 0.135 µM (active).

As for `CC(=O)NCC(=O)N1[C@@H]2CC[C@H]1c1ccc(Nc3ncc(C(F)(F)F)c(NC4CCC4)n3)cc12` [PF-03814735], the Kd in assay [2] is > 30 µM (inactive); in [3], > 30 µM (inactive); at Deoxycytidine kinase, > 30 µM (inactive); in assay [5], > 30 µM (inactive); in assay [6], > 30 µM (inactive); in assay [7], 2.18 µM.

As for `O=C(NOCCO)c1cc(CN2OCCCC2=O)c(F)c(F)c1Nc1ccc(I)cc1F` [RO-4987655], the Kd (in assay [2]; on Deoxycytidine kinase; in assay [6]) was > 30 µM (inactive) throughout.

For `N#CC[C@H](C1CCCC1)n1cc(-c2ncnc3[nH]ccc23)cn1` [RUXOLITINIB], the Kd (in assay [2]; on Deoxycytidine kinase; in assay [6]) was > 30 µM (inactive) each time.

Regarding `CC(C)c1cc(CNc2nc(Nc3cc(C4CC4)[nH]n3)cc(N3CCN(C)CC3)n2)on1` [XL-228], the Kd was > 30 µM (inactive) in assay [2]; > 30 µM (inactive) in assay [3]; 1.86 µM (active) in [4]; > 30 µM (inactive) at Deoxycytidine kinase; 0.032 µM (active) on Ephrin type-A receptor 2; > 30 µM (inactive) in [5]. For the same compound, the Kd in assay [7] and in assay [8] was > 30 µM (inactive) each time.
